This assay addresses T1, PLK1 (Homo sapiens, UniProt P53350).
T1 construct: Full-length, active GST-PLK1 is purified from Sf9 insect cells; made in house; host or cells: Sf9 insect cells
Briefly: Biochemical Characterization Assay: HTRF kinase assay, GST-PLK1 phosphorylation of GST-p53. As to conditions: GST-PLK1, GST-p53 substrate. The method in brief:
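Full-length active GST-PLK1 (Sf9, 3 ug/mL) phosphorylated full-length GST-p53 (E. coli) in Kinase Assay Buffer for 35 min at 37 °C. Stopped with EDTA; phospho-p53 detected by HTRF with anti-phospho-p53, Eu-anti-rabbit and APC-anti-GST antibodies.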
In general terms: In TR-FRET formats the signal depends on donor and acceptor labels being close together.

Molecules are shown by their SMILES. pIC50: −log10 of the molar value.

T1 sequence (P53350 whole entry): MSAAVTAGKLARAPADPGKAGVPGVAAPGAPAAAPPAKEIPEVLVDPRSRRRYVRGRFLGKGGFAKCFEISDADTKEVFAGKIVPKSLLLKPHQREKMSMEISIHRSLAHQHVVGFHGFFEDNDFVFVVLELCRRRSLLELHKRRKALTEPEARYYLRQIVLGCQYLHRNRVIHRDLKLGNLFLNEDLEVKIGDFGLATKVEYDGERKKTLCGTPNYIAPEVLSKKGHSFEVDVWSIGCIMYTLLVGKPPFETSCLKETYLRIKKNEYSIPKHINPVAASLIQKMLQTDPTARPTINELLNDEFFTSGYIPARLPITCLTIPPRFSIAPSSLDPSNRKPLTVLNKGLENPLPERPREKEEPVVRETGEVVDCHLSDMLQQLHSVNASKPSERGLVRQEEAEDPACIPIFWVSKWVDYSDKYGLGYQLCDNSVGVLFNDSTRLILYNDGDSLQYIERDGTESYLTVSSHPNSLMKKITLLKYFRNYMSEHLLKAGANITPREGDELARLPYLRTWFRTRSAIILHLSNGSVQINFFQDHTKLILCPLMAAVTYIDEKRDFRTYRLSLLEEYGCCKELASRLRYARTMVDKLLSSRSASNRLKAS

In general, pIC50 refers to the IC50 on a negative log10 scale, so that one unit is a factor of ten. A higher pIC50 goes with a small IC50. In turn, `COc1cc(C(=O)N2CCC(N)CC2)ccc1Nc1ncc2c(n1)N(C1CCC1)CC(F)(F)C(=O)N2C` [Example I-6, 2-[4-(4-amino-piperidine-1-carbonyl)-2-methoxy-phenylamino]-9-cyclobutyl-7,7-difluoro-5-methyl-5,7,8,9-tetrahydro-pyrimido[4,5-b][1,4]diazepin-6-one] showed a pIC50 (ATP) of 6.30 to 7.29.

As for `COc1cc(C(=O)O)ccc1Nc1ncc2c(n1)N(C1CCC1)CC(F)(F)C(=O)N2C` [Example I-1, 4-(9-cyclobutyl-7,7-difluoro-5-methyl-6-oxo-6,7,8,9-tetrahydro-5H-pyrimido[4,5-b][1,4]diazepin-2-ylamino)-3-methoxy-benzoic acid], the pIC50 (ATP) is 7.30 to 9.00.

Turning to `CN1C(=O)C(F)(F)CN(C2CCCC2)c2nc(Nc3ccc(C(=O)NC4CCN(C(=O)OC(C)(C)C)CC4)cc3F)ncc21` [Example I-229, 4-[4-(9-cyclopentyl-7,7-difluoro-5-methyl-6-oxo-6,7,8,9-tetrahydro-5H-pyrimido[4,5-b][1,4]diazepin-2-ylamino)-3-fluoro-benzoylamino]-piperidine-1-carboxylic acid tert-butyl ester], the pIC50 is 7.30 to 9.00.

Molecule `COc1cc(C(=O)NC2CCCCC2)ccc1Nc1ncc2c(n1)N(C1CCCC1)CC(F)(F)C(=O)N2C` [Example I-27, N-cyclohexyl-4-(9-cyclopentyl-7,7-difluoro-5-methyl-6-oxo-6,7,8,9-tetrahydro-5H-pyrimido[4,5-b][1,4]diazepin-2-ylamino)-3-methoxy-benzamide] showed a pIC50 (ATP) of 7.30 to 9.00.

As for `CN1C(=O)C(F)(F)CN(C2CCC2)c2nc(Nc3ccc(C(=O)N4CCC(N)CC4)cc3)ncc21` [Example I-15, 2-[4-(4-amino-piperidine-1-carbonyl)-phenylamino]-9-cyclobutyl-7,7-difluoro-5-methyl-5,7,8,9-tetrahydro-pyrimido[4,5-b][1,4]diazepin-6-one], for the setting “ATP”, the pIC50 was 6.30 to 7.29.

`CN1C(=O)C(F)(F)CN(C2CCCCC2)c2nc(Nc3ccc(C(=O)NC4CCOCC4)cc3)ncc21` [Example I-263, 4-(9-cyclohexyl-7,7-difluoro-5-methyl-6-oxo-6,7,8,9-tetrahydro-5H-pyrimido[4,5-b][1,4]diazepin-2-ylamino)-N-(tetrahydro-pyran-4-yl)-benzamide] had a pIC50 of 7.30 to 9.00.

On to `CN1C(=O)C(F)(F)CN(C2CCC2)c2nc(Nc3ccc(C(=O)NC4CCNCC4)cc3)ncc21` [Example I-14, 4-(9-cyclobutyl-7,7-difluoro-5-methyl-6-oxo-6,7,8,9-tetrahydro-5H-pyrimido[4,5-b][1,4]diazepin-2-ylamino)-N-piperidin-4-yl-benzamide], for which the pIC50 (ATP) was 7.30 to 9.00.

On to `CCN1C(=O)C(F)(F)CN(C2CCCC2)c2nc(Nc3ccc(C(=O)NC4CCOCC4)cc3OC)ncc21` [Example I-161, 4-(9-cyclopentyl-5-ethyl-7,7-difluoro-6-oxo-6,7,8,9-tetrahydro-5H-pyrimido[4,5-b][1,4]diazepin-2-ylamino)-3-methoxy-N-(tetrahydro-pyran-4-yl)-benzamide], for which the pIC50 is 5.30 to 6.30.

`CCN1CCC(NC(=O)c2ccc(Nc3ncc4c(n3)N(C3CCCC3)CC(F)(F)C(=O)N4C)c(F)c2)CC1` [Example I-224, 4-(9-cyclopentyl-7,7-difluoro-5-methyl-6-oxo-6,7,8,9-tetrahydro-5H-pyrimido[4,5-b][1,4]diazepin-2-ylamino)-N-(1-ethyl-piperidin-4-yl)-3-fluoro-benzamidemide] showed a pIC50 of 7.30 to 9.00.

`CCOc1cc(C(=O)NCCN(C)C)ccc1Nc1ncc2c(n1)N(C1CCCC1)CC(F)(F)C(=O)N2C` [Example I-218, 4-(9-cyclopentyl-7,7-difluoro-5-methyl-6-oxo-6,7,8,9-tetrahydro-5H-pyrimido[4,5-b][1,4]diazepin-2-ylamino)-N-(2-dimethylamino-ethyl)-3-ethoxy-benzamide] showed a pIC50 of 7.30 to 9.00.
